Experimental findings from PMC2191575 (The Journal of Experimental Medicine, 1994) are described below.

In the experiment the test system is chimeric human/mouse MHC class II molecules. The format is binding.

Consider “influenza nucleoprotein (383-395): DR-restricted synthetic peptide (SRYWAIRTRSGGN)”, for which the “binding to chimeric MHC class II molecules” value was “Specific binding was also observed”.
